Assay results from patent US7998681B2, “Diagnosis and therapy of antibody-mediated inflammatory auto-immune disorders” (Los Angeles Biomedical Research Institute at Harbor-UCLA …, priority 2000, dated 2011).

Tests used:
Format in all cases: cell-based, human
[1] = tested on: dermal fibroblast strains; test: Glycosaminoglycan (hyaluronan) synthesis in dermal fibroblasts; settings: dermal fibroblast strains from the same donors
Source text: Applicants have also recently made a number of directly relevant observations of the disordered accumulation of hyaluronan in TAO. Orbital fibroblasts synthesize less hyaluronan constitutively than do dermal fibroblasts (Smith, T. J., Bahn, R. S. and Gorman, C. A.: Hormonal regulation of hyaluronate synthesis in cultured human fibroblasts: evidence for differences between retroocular and dermal fibroblasts. J. Clin. Endocrinol. Metab. 69:1019-1023, 1989). However, interferon-γ can modestly upregulate hyaluronan synthesis in orbital but not dermal fibroblasts (Smith, T. J., Bahn, R. S., Gorman, C. A. and Cheavens, M.: Stimulation of glycosaminoglycan accumulation by interferon gamma in cultured human retroocular fibroblasts. J. Clin. Endocrinol. Metab. 72:1169-1171, 1991). […] The macromolecular material was sensitive to Streptomyces hyaluronidase digestion, defining it as hyaluronan (Smith, T. J., Wang, H.-S. and Evans, C. H.: Leukoregulin is a potent inducer of hyaluronan synthesis in cultured orbital fibroblasts. Am. J. Physiol. 268:C382-C388, 1995, appended). The increase was substantially greater in magnitude than that observed in dermal fibroblast strains from the same donors (3-fold) and on the basis of pulse-chase studies could be attributed to changes in net synthesis.

RANTES [2] = test: RANTES ELISA of medium from treated fibroblasts, GD donors; settings: GD, limit of detection 15 pg/ml
Source text: In addition to its therapeutic aspects, the present invention also relates to a diagnostic method for detecting the presence of antibody-activated fibroblasts in the patient. Applicants believe that several auto immune diseases or disorders are associated with antibody-activated fibroblasts. […] Altered levels of these chemoattractants can be detected in various biological samples in mammals, preferably humans. Levels of IL-16 and/or RANTES may be monitored in a patient, using standard techniques, as an indication of the deleterious aspects of the disease condition. Biological samples, including but not limited to serum, vitreous humor, aqueous humor, synovial fluid, and tissue, will be drawn from the patient using standard techniques. Particularly preferred are serum samples. The measurement of the IL-16 and RANTES levels may be monitored using any method possible to detect the levels of these proteins in biological samples. A preferred method of analysis is by ELISA as described in Sciaky, D. et al., J. Immunol. 164(7):3806-14, 2000. An ELISA specific for IL-16 can be used to assess the levels released by fibroblasts as described previously in Lim, K. G. et al., J. Immunol. 156(7): 2566-70, 1996. An ELISA specific for RANTES can be used according to the manufacturer's specification (BioSource Intl., Camarillo, Calif.).
(§1) The levels of IL-16 and RANTES were then assessed with specific ELISAs. The ELISA assay for IL-16 is performed essentially as discussed in Sciaky D., Brazer, W., Center, D. M., Cruikshank, W. W. and Smith, T. J.: Cultured human fibroblasts express constitutive IL-16 mRNA: Cytokine induction of active IL-16 protein synthesis through a caspase-3-dependent mechanism. J. Immunol. 164(7):3806-14, 2000). An ELISA (BioSource) for RANTES was performed according to the manufacturer's instructions.

RANTES [3] = test: RANTES ELISA of medium from treated fibroblasts, normal donors; settings: limit of detection 15 pg/ml
Source text: In addition to its therapeutic aspects, the present invention also relates to a diagnostic method for detecting the presence of antibody-activated fibroblasts in the patient. Applicants believe that several auto immune diseases or disorders are associated with antibody-activated fibroblasts. Applicants have shown that increased activation of fibroblasts by auto-antibodies can be monitored by determining the levels of IL-16 and/or RANTES production in a patient. Altered levels of these chemoattractants can be detected in various biological samples in mammals, preferably humans. Levels of IL-16 and/or RANTES may be monitored in a patient, using standard techniques, as an indication of the deleterious aspects of the disease condition. Biological samples, including but not limited to serum, vitreous humor, aqueous humor, synovial fluid, and tissue, will be drawn from the patient using standard techniques. Particularly preferred are serum samples. The measurement of the IL-16 and RANTES levels may be monitored using any method possible to detect the levels of these proteins in biological samples. A preferred method of analysis is by ELISA as described in Sciaky, D. et al., J. Immunol. 164(7):3806-14, 2000. An ELISA specific for IL-16 can be used to assess the levels released by fibroblasts as described previously in Lim, K. G. et al., J. Immunol. 156(7): 2566-70, 1996. An ELISA specific for RANTES can be used according to the manufacturer's specification (BioSource Intl., Camarillo, Calif.).
as §1, with “instructions. In an analysis of over a dozen strains, TAO specific IgG elicit substantial induction of IL-16 and RANTES and in no case were normal fibroblasts so affected.” for “instructions.”

“IL-1β: pro-inflammatory cytokine used to activate fibroblasts” was tested, and the “up-regulation of glycosaminoglycan synthesis” value [1] was 3 fold, the “RANTES” value (RANTES [2]; strain 1, Orbit) was 84 ± 8 pg/mL and the “RANTES” value (RANTES [2]; strain 2, Orbit) was 116 ± 11 pg/mL. For the same substance, the “RANTES” value (RANTES [2]; strain 3, Abdominal skin) was 116 ± 11 pg/mL, the “RANTES” value (RANTES [2]; strain 4, Orbit) was 128 ± 26 pg/mL and the “RANTES” value (RANTES [2]; strain 6, Neck skin) was 253 ± 42 pg/mL. The “RANTES” value (RANTES [2]; strain 7, Pretibial skin) was 128 ± 26 pg/mL, the “RANTES” value (RANTES [2]; strain 9, Orbit) was 78 ± 21 pg/mL and the “RANTES” value (RANTES [2]; strain 10, Orbit) was 214 ± 30 pg/mL. The “RANTES” value (RANTES [2]; strain 11, Orbit) was 69 ± 6 pg/mL, the “RANTES” value (RANTES [3]; strain 12, Orbit) was 42 ± 9 pg/mL and the “RANTES” value (RANTES [3]; strain 14, Orbit) was 79 ± 11 pg/mL. The “RANTES” value (RANTES [3]; strain 15, Extremity Skin) was 173 ± 12 pg/mL and the “RANTES” value (RANTES [3]; strain 16, Extremity Skin) was 125 ± 9 pg/mL.
